The values below come from PubChem BioAssay AID248 (DTP/NCI, 2004).

This test relates to L1210 leukemia ip in BDF1 mice, survival T/C. Briefly: NCI In Vivo Anticancer Drug Screen. Data for tumor model L1210 Leukemia (intraperitoneal) in B6D2F1 (BDF1) mice. Particulars: endpoint: mean survival time, higher = longer survival. The gist of the method: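 Survival endpoint. Drug-treated group vs vehicle group, expressed as T divided by C. Tumor passaged by transplantation.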

Setting [1] is: dose: 100.0 mg/kg/injection, schedule: Q01DX001 (ip), vehicle: saline with Tween-80.
[2] abbreviates: dose: 200.0 mg/kg/injection, schedule: Q01DX001 (ip), vehicle: saline with Tween-80.
[3] abbreviates: dose: 100.0 mg/kg/injection, schedule: Q04DX003 (ip), vehicle: saline with Tween-80.
Where [4] appears, read: dose: 200.0 mg/kg/injection, schedule: Q04DX003 (ip), vehicle: saline with Tween-80.
Setting [5] is: dose: 400.0 mg/kg/injection, schedule: Q04DX003 (ip), vehicle: saline with Tween-80.
Setting [6] is: dose: 100.0 mg/kg/injection, schedule: Q01DX009 (ip), vehicle: saline with Tween-80.
[7] abbreviates: dose: 100.0 mg/kg/injection, schedule: Q04DX003 (ip), vehicle: Klucel (hydroxypropylcellulose) (HPC).
Where [8] appears, read: dose: 200.0 mg/kg/injection, schedule: Q01DX009 (ip), vehicle: saline with Tween-80.
Where [9] appears, read: dose: 200.0 mg/kg/injection, schedule: Q04DX003 (ip), vehicle: Klucel (hydroxypropylcellulose) (HPC).
The mark [10] stands for this setting: dose: 400.0 mg/kg/injection, schedule: Q01DX009 (ip), vehicle: saline with Tween-80.
The mark [11] stands for this setting: dose: 400.0 mg/kg/injection, schedule: Q04DX003 (ip), vehicle: Klucel (hydroxypropylcellulose) (HPC).
Where [12] appears, read: dose: 100.0 mg/kg/injection, schedule: Q01DX009 (ip), vehicle: saline.
Setting [13] is: dose: 200.0 mg/kg/injection, schedule: Q01DX009 (ip), vehicle: saline.

The structures appear in SMILES notation. Where “and” joins values, the source holds several entries; their conditions need not be identical. Equal entries are not always repeated. Toxic doses and inconclusive results are not listed.

On to `Cc1ccc(NC(=O)N(CCCl)N=O)cc1NC(=O)c1ccccc1`, for which the T/C is 103 % of control (dose: 0.22 mg/kg/injection, schedule: Q01DX009 (ip), vehicle: carboxymethylcellulose (CMC)); 103 % of control (dose: 0.45 mg/kg/injection, schedule: Q01DX009 (ip), vehicle: carboxymethylcellulose (CMC)); 180 % of control (dose: 1.8 mg/kg/injection, schedule: Q01DX009 (ip), vehicle: carboxymethylcellulose (CMC)); 175 % of control (dose: 2.6 mg/kg/injection, schedule: Q01DX009 (ip), vehicle: carboxymethylcellulose (CMC)); 164 % of control (dose: 3.0 mg/kg/injection, schedule: Q01DX009 (ip), vehicle: carboxymethylcellulose (CMC)); 151 % of control (dose: 4.0 mg/kg/injection, schedule: Q01DX009 (ip), vehicle: carboxymethylcellulose (CMC)). Further, the T/C (dose: 6.6 mg/kg/injection, schedule: Q01DX009 (ip), vehicle: carboxymethylcellulose (CMC)) is 179 % of control; the T/C (dose: 10.0 mg/kg/injection, schedule: Q01DX009 (ip), vehicle: carboxymethylcellulose (CMC)) is 194 % of control; the T/C (dose: 15.0 mg/kg/injection, schedule: Q01DX009 (ip), vehicle: carboxymethylcellulose (CMC)) was 183 % of control; the T/C (dose: 23.0 mg/kg/injection, schedule: Q01DX009 (ip), vehicle: carboxymethylcellulose (CMC)) was 243 % of control; the T/C (dose: 34.0 mg/kg/injection, schedule: Q01DX009 (ip), vehicle: carboxymethylcellulose (CMC)) is 186 % of control; the T/C (dose: 52.0 mg/kg/injection, schedule: Q01DX009 (ip), vehicle: carboxymethylcellulose (CMC)) was 178 % of control. Also, the T/C reads like this: (dose: 78.0 mg/kg/injection, schedule: Q01DX001 (ip), vehicle: Klucel (hydroxypropylcellulose) (HPC)) 155 % of control; (dose: 78.0 mg/kg/injection, schedule: Q01DX009 (ip), vehicle: carboxymethylcellulose (CMC)) 205 % of control; (dose: 118.0 mg/kg/injection, schedule: Q01DX001 (ip), vehicle: Klucel (hydroxypropylcellulose) (HPC)) 159 % of control; (dose: 177.0 mg/kg/injection, schedule: Q01DX001 (ip), vehicle: Klucel (hydroxypropylcellulose) (HPC)) 213 % of control; (dose: 266.0 mg/kg/injection, schedule: Q01DX001 (ip), vehicle: carboxymethylcellulose (CMC)) 154 % of control; (dose: 266.0 mg/kg/injection, schedule: Q01DX009 (ip), vehicle: carboxymethylcellulose (CMC)) 105 % of control. The T/C runs as follows: (dose: 400.0 mg/kg/injection, schedule: Q01DX001 (ip), vehicle: carboxymethylcellulose (CMC)) 150 % of control and 168 % of control; (dose: 400.0 mg/kg/injection, schedule: Q01DX009 (ip), vehicle: carboxymethylcellulose (CMC)) 98 % of control; (dose: 600.0 mg/kg/injection, schedule: Q01DX001 (ip), vehicle: carboxymethylcellulose (CMC)) 165 % of control.
Regarding `N#Cc1cc(Cl)c(OCc2ccccc2)c(Cl)c1`, the T/C is, setting by setting: (dose: 50.0 mg/kg/injection, schedule: Q01DX001 (ip), vehicle: saline with Tween-80) 102 % of control; under setting [1], 104 % of control; under setting [2], 95 % of control.
With `CC(=O)OC1([N+](=O)[O-])c2ccccc2C2CC1c1ccccc12` (stereo not drawn), the T/C (dose: 75.0 mg/kg/injection, schedule: Q04DX003 (ip), vehicle: Klucel (hydroxypropylcellulose) (HPC)) was 112 % of control; the T/C (dose: 100.0 mg/kg/injection, schedule: Q01DX001 (ip), vehicle: Klucel (hydroxypropylcellulose) (HPC)) is 91 % of control; the T/C (dose: 150.0 mg/kg/injection, schedule: Q04DX003 (ip), vehicle: Klucel (hydroxypropylcellulose) (HPC)) was 107 % of control; the T/C (dose: 200.0 mg/kg/injection, schedule: Q01DX001 (ip), vehicle: Klucel (hydroxypropylcellulose) (HPC)) was 99 % of control; the T/C (dose: 300.0 mg/kg/injection, schedule: Q04DX003 (ip), vehicle: Klucel (hydroxypropylcellulose) (HPC)) was 97 % of control; the T/C (dose: 400.0 mg/kg/injection, schedule: Q01DX001 (ip), vehicle: Klucel (hydroxypropylcellulose) (HPC)) was 100 % of control.
On to `Nc1ccc(C(F)(F)F)cc1[N+](=O)[O-]`, for which the T/C is 118 % of control (dose: 100.0 mg/kg/injection, schedule: Q04DX002 (ip), vehicle: saline); 103 % of control (dose: 200.0 mg/kg/injection, schedule: Q04DX002 (ip), vehicle: saline); 107 % of control (dose: 400.0 mg/kg/injection, schedule: Q04DX002 (ip), vehicle: saline).
For `O=C(c1ccccc1)C1OC1c1ccc([N+](=O)[O-])cc1` (stereo not drawn), the T/C is 91 % of control under setting [1]; 100 % of control under setting [3]; 88 % of control under setting [2]; 103 % of control under setting [4]; 88 % of control (dose: 400.0 mg/kg/injection, schedule: Q01DX001 (ip), vehicle: saline with Tween-80); 100 % of control under setting [5].
Take `N#C/C(=C\c1cccn1Cc1ccc2ccccc2c1)C(N)=O`: the T/C was 104 % of control (dose: 100.0 mg/kg/injection, schedule: Q04DX002 (ip), vehicle: saline with Tween-80); 96 % of control (dose: 200.0 mg/kg/injection, schedule: Q04DX002 (ip), vehicle: saline with Tween-80); 93 % of control (dose: 400.0 mg/kg/injection, schedule: Q04DX002 (ip), vehicle: saline with Tween-80).
Regarding `CCC1(O)C2CCCC1CCC2` (stereo not drawn), the T/C reads like this: under setting [6], 97 % of control; under setting [7], 97 % of control; under setting [8], 94 % of control; under setting [9], 92 % of control; under setting [10], 97 % of control; under setting [11], 97 % of control.
For the compound `Cc1ccc2c(c1)P(O)(=S)c1cc(Cl)ccc1O2` (stereo not drawn), the T/C reads like this: (dose: 25.0 mg/kg/injection, schedule: Q01DX009 (ip), vehicle: saline) 102 % of control; (dose: 50.0 mg/kg/injection, schedule: Q01DX009 (ip), vehicle: saline) 108 % of control; under setting [12], 108 % of control; under setting [13], 108 % of control.
Take `COc1ccc(COC(=O)Nc2cc(C(F)(F)F)ccc2Cl)cc1`: the T/C was 100 % of control under setting [12]; 107 % of control under setting [13]; 105 % of control (dose: 400.0 mg/kg/injection, schedule: Q01DX009 (ip), vehicle: saline).
For `CN(C)N=Nc1ccccc1Cl`, the T/C (dose: 25.0 mg/kg/injection, schedule: Q01DX009 (ip), vehicle: saline with Tween-80) is 106 % of control; the T/C (dose: 50.0 mg/kg/injection, schedule: Q01DX009 (ip), vehicle: saline with Tween-80) is 120 % of control; the T/C (dose: 50.0 mg/kg/injection, schedule: Q04DX003 (ip), vehicle: Klucel (hydroxypropylcellulose) (HPC)) is 97 % of control; the T/C (dose: 100.0 mg/kg/injection, schedule: Q01DX009 (ip), vehicle: Klucel (hydroxypropylcellulose) (HPC)) is 95 % of control; the T/C under setting [6] is 123 % of control; the T/C under setting [7] was 102 % of control and 103 % of control. The T/C runs as follows: under setting [9], 103 % of control and 111 % of control; under setting [11], 113 % of control.
`CCOC(=O)c1ccc(NC(=S)NC(=O)/C=C/c2ccccc2)cc1`: the T/C is, setting by setting: under setting [6], 92 % of control; under setting [3], 91 % of control; under setting [8], 100 % of control; under setting [4], 94 % of control; under setting [10], 97 % of control; under setting [5], 101 % of control.
For `O=C(Sc1ccccc1)n1nc(Cl)c2ccc([N+](=O)[O-])cc21`, the T/C is, setting by setting: (dose: 100.0 mg/kg/injection, schedule: Q01DX001 (ip), vehicle: saline) 94 % of control; (dose: 200.0 mg/kg/injection, schedule: Q01DX001 (ip), vehicle: saline) 94 % of control; (dose: 400.0 mg/kg/injection, schedule: Q01DX001 (ip), vehicle: saline) 90 % of control.
Consider `CCCSCC(C)C`, for which the T/C under setting [6] was 108 % of control and the T/C under setting [8] is 98 % of control.
Take `CCOC(=O)C1C=NC([N+](=O)[O-])=C1Br` (stereo not drawn): the T/C reads like this: (dose: 25.0 mg/kg/injection, schedule: Q04DX002 (ip), vehicle: Klucel (hydroxypropylcellulose) (HPC)) 102 % of control; (dose: 50.0 mg/kg/injection, schedule: Q04DX002 (ip), vehicle: Klucel (hydroxypropylcellulose) (HPC)) 109 % of control; (dose: 100.0 mg/kg/injection, schedule: Q04DX002 (ip), vehicle: Klucel (hydroxypropylcellulose) (HPC)) 103 % of control and 105 % of control; (dose: 400.0 mg/kg/injection, schedule: Q04DX002 (ip), vehicle: Klucel (hydroxypropylcellulose) (HPC)) 93 % of control.
